Results: ChEMBL document CHEMBL1152223, “Analogues of 2-phenyl-ethenesulfonic acid phenyl ester have dual functions of inhibiting expression of inducible nitric oxide synthase and activating peroxisome proliferator-activated receptor gamma” (Bioorg Med Chem Lett, 2008)
Active and inactive are the calls of the source. The calls are words filed in the database; no cut-off is given here.

What was measured:
[1] = molecular target: T1, Peroxisome proliferator-activated receptor gamma (Homo sapiens, UniProt P37231); test: Displacement of [3H]BRL49653 from PPARgamma ligand binding domain by scintillation proximity assay
T1 sequence (P37231 whole entry): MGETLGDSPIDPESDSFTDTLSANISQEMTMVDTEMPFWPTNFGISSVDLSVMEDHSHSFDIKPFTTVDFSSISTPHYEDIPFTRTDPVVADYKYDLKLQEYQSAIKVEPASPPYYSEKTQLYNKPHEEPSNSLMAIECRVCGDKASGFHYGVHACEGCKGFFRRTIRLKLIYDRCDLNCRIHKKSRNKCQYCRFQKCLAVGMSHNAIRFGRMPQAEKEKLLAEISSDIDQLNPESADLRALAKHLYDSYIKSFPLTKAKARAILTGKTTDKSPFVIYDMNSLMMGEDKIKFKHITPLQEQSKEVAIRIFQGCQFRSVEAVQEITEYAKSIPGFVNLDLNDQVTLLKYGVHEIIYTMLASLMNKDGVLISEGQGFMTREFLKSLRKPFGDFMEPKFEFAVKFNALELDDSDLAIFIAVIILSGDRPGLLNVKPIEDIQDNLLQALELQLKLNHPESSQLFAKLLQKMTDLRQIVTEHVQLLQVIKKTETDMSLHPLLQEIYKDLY

RAW264.7 [2] = test: Suppression of LPS/IFN-gamma-stimulated NO production in mouse RAW264.7 cells; type: functional, cell-based
RAW264.7 [3] = test: Suppression of LPS/IFN-gamma-stimulated NO production in mouse RAW264.7 cells at 10 uM; type: functional
[4] = Cytotoxicity against mouse RAW264.7 cells; type: cell-based
RAW264.7 [5] = test: Inhibition of iNOS expression in LPS/IFN-gamma-stimulated mouse RAW264.7 cells at 5 uM; type: functional, cell-based
RAW264.7 [6] = test: Inhibition of iNOS expression in LPS/IFN-gamma-stimulated mouse RAW264.7 cells at 10 uM; type: functional, cell-based

IC50 [1] [µM]	IC50 (RAW264.7 [2]) [µM]	SMILES	Activity (RAW264.7 [3]) [%]	GI50 [4] [µM]	also measured
1.29	7.45	COc1ccc(OS(=O)(=O)/C=C/c2ccccc2)cc1	–	–	–
–	–	O=C(O)c1ccc(NS(=O)(=O)/C=C/c2ccccc2)cc1	2	–	–
–	–	O=S(=O)(CCc1ccccc1)Oc1ccc(Cl)cc1	4	–	–
–	–	O=S(=O)(CCc1ccccc1)Oc1ccc2ccccc2c1	6	–	–
–	–	O=S(=O)(CCc1ccccc1)Oc1ccccc1	2	–	–
13.5	21.6	O=C(O)c1cccc(OS(=O)(=O)/C=C/c2ccccc2)c1	–	> 80	–
1.19	3.45	Cc1cccc(OS(=O)(=O)/C=C/c2ccccc2)c1	–	62.5	–
–	17.5	CN(CCOc1ccc(CC2SC(=O)NC2=O)cc1)c1ccccn1 (stereo unspecified) [ROSIGLITAZONE]	–	–	–
–	–	O=C(O)c1cccc(NS(=O)(=O)/C=C/c2ccccc2)c1	1	–	–
–	–	Cc1cccc(OS(=O)(=O)CCc2ccccc2)c1	0	–	–
–	–	CCS(=O)(=O)Oc1cccc(Oc2ccccc2)c1	11	–	–
–	–	O=S(=O)(Cc1ccccc1)Oc1ccc2ccccc2c1	7	–	–
–	–	O=S(=O)(Cc1ccccc1)Oc1ccccc1Cl	0	–	–
–	–	Cc1ccc(NS(=O)(=O)/C=C/c2ccccc2)cc1	8	–	–
–	–	COc1ccc(NS(=O)(=O)/C=C/c2ccccc2)cc1	5	–	–
2.1	9.72	O=Cc1ccc(OS(=O)(=O)/C=C/c2ccccc2)cc1	–	> 80	Activity (RAW264.7 [5]): Active; Activity (RAW264.7 [6]): Active

IC50 [1] [µM]	IC50 (RAW264.7 [2]) [µM]	SMILES	Activity (RAW264.7 [3]) [%]	GI50 [4] [µM]	also measured
1.09	6.18	O=S(=O)(/C=C/c1ccccc1)Oc1ccc2ccccc2c1	–	> 80	–
–	–	COc1cccc(NS(=O)(=O)/C=C/c2ccccc2)c1	12	–	–
0.407	2.77	Cc1ccc(OS(=O)(=O)/C=C/c2ccccc2)cc1	–	> 80	Activity (RAW264.7 [5]): Active; Activity (RAW264.7 [6]): Active
0.703	9.3	O=S(=O)(/C=C/c1ccccc1)Oc1ccc(OCc2ccccc2)cc1	–	> 80	Activity (RAW264.7 [5]): Active; Activity (RAW264.7 [6]): Active
–	2.2	CCCCC/C=C/C=C1/C(=O)C=C[C@@H]1C/C=C\CCCC(=O)O	–	–	Activity (RAW264.7 [5]): Active; Activity (RAW264.7 [6]): Active
–	–	O=S(=O)(/C=C/c1ccccc1)Nc1ccccc1	4	–	–
0.747	9.88	CCOC(=O)c1ccc(OS(=O)(=O)/C=C/c2ccccc2)cc1	–	> 80	–
–	–	O=C(O)c1cccc(OS(=O)(=O)CCc2ccccc2)c1	6	–	–
–	–	CCOc1ccc(NS(=O)(=O)/C=C/c2ccccc2)cc1	0	–	–
–	–	O=S(=O)(CCc1ccccc1)Oc1c(Cl)cc(Cl)cc1Cl	10	–	–
10.7	19.9	CC(=O)Nc1ccc(OS(=O)(=O)/C=C/c2ccccc2)cc1	–	> 80	–
–	–	O=S(=O)(Cc1ccccc1)Oc1ccccc1 [PHENYL PHENYLMETHANESULFONATE]	3	–	–
1.33	6.66	O=S(=O)(/C=C/c1ccccc1)Oc1ccccc1	–	> 80	Activity (RAW264.7 [5]): Active; Activity (RAW264.7 [6]): Active
–	–	O=S(=O)(/C=C/c1ccccc1)Nc1ccc(Br)cc1	5	–	–
–	–	NS(=O)(=O)c1ccc(NS(=O)(=O)/C=C/c2ccccc2)cc1	0	–	–
1.44	1.83	O=S(=O)(/C=C/c1ccccc1)Oc1c(Cl)cc(Cl)cc1Cl	–	> 80	Activity (RAW264.7 [5]): Active; Activity (RAW264.7 [6]): Active

SMILES	IC50 [1] [µM]	IC50 (RAW264.7 [2]) [µM]	Activity (RAW264.7 [3]) [%]	GI50 [4] [µM]	also measured
O=S(=O)(/C=C/c1ccccc1)Oc1ccc(Cl)cc1	0.302	2.35	–	75.3	–
O=S(=O)(/C=C/c1ccccc1)Oc1cccc(Oc2ccccc2)c1	0.382	16.2	–	> 80	–
